According to the NIST ThermoML archive (doi:10.1021/je8006937):
Several values for one entry are separate records, joined by “and”; a condition that tells them apart may be missing. Equal values may be shown once.

Conditions: Liquid, Pendant drop shape

CCCCn1cc[n+](C)c1.CCOCCOCCOS(=O)(=O)[O-] [1-butyl-3-methylimidazolium 2-(2-ethoxyethoxy)ethylsulfate] + O=C=O
Conditions | interfacial tension [mN/m]
281.3 K, 1960 kPa | 23
281.3 K, 3680 kPa | 10.8
281.31 K, 100 kPa | 34.5
281.31 K, 3150 kPa | 15.1
281.32 K, 1110 kPa | 28.2
281.48 K, 4300 kPa | 4.6
281.58 K, 5100 kPa | 4.5
281.58 K, 6970 kPa | 4.5
281.61 K, 9890 kPa | 4
281.61 K, 13700 kPa | 3.8
281.63 K, 17000 kPa | 3.7
281.63 K, 19930 kPa | 3.5
281.69 K, 100 kPa | 34.3
281.69 K, 1490 kPa | 25.4
281.7 K, 600 kPa | 30.6
281.7 K, 2830 kPa | 17.3
281.7 K, 4160 kPa | 6.5
281.84 K, 4340 kPa | 4.9
281.86 K, 12130 kPa | 4.4
281.87 K, 5900 kPa | 4.7
281.91 K, 18060 kPa | 3.7
295.14 K, 100 kPa | 34
295.2 K, 100 kPa | 34.2
295.3 K, 1030 kPa | 29.3
295.39 K, 1980 kPa | 25
295.5 K, 3350 kPa | 18.8
295.8 K, 3950 kPa | 16.3
296.03 K, 4960 kPa | 12.4
296.29 K, 6150 kPa | 12.8
296.31 K, 6630 kPa | 5.8
296.35 K, 8190 kPa | 5.6
296.42 K, 10120 kPa | 5.2
296.5 K, 14370 kPa | 4.8
296.53 K, 17640 kPa | 4.5
319.53 K, 100 kPa | 33.3
319.57 K, 2130 kPa | 27.7
319.58 K, 1030 kPa | 30.4
319.58 K, 3610 kPa | 23.6
319.59 K, 5010 kPa | 19.5
319.6 K, 6190 kPa | 16.4
319.63 K, 7090 kPa | 14
319.69 K, 8100 kPa | 12.3
319.71 K, 9070 kPa | 7.7
319.78 K, 10070 kPa | 7.9
319.78 K, 11080 kPa | 8
319.79 K, 11720 kPa | 7.9
319.85 K, 14840 kPa | 7.6
319.91 K, 17840 kPa | 7.1
319.94 K, 20870 kPa | 6.7

CCOCCOCCOS(=O)(=O)[O-].CCn1cc[n+](C)c1 [1-ethyl-3-methylimidazolium 2-(2-ethoxyethoxy)ethylsulfate] + O=C=O
Conditions | interfacial tension
280.25 K, 100 kPa | 36.7 mN/m and 37.3 mN/m
280.26 K, 1170 kPa | 30.3 mN/m
280.26 K, 2340 kPa | 22.6 mN/m
280.26 K, 3340 kPa | 15.5 mN/m
280.28 K, 3950 kPa | 9.8 mN/m
280.4 K, 4240 kPa | 6.3 mN/m
280.46 K, 5230 kPa | 6.6 mN/m
280.46 K, 7030 kPa | 6 mN/m
280.49 K, 8960 kPa | 5.8 mN/m
280.51 K, 10860 kPa | 5.4 mN/m
280.53 K, 12970 kPa | 5.4 mN/m
280.54 K, 15110 kPa | 5.1 mN/m
280.55 K, 17290 kPa | 5.1 mN/m
280.58 K, 20670 kPa | 4.7 mN/m
299.4 K, 100 kPa | 36.2 mN/m
299.43 K, 4810 kPa | 14.9 mN/m
299.43 K, 14740 kPa | 6.6 mN/m
299.45 K, 16390 kPa | 6.4 mN/m
299.46 K, 17880 kPa | 6.2 mN/m
299.47 K, 6680 kPa | 8.6 mN/m
299.48 K, 20360 kPa | 6 mN/m
299.53 K, 10230 kPa | 7.6 mN/m
299.54 K, 12350 kPa | 6.8 mN/m
299.55 K, 8330 kPa | 7.9 mN/m
319.74 K, 2000 kPa | 28.5 mN/m
319.74 K, 3090 kPa | 25.1 mN/m
319.74 K, 4040 kPa | 22.2 mN/m
319.75 K, 100 kPa | 35.5 mN/m and 35.4 mN/m
319.75 K, 1010 kPa | 31.5 mN/m
319.75 K, 5010 kPa | 19.4 mN/m
319.76 K, 5950 kPa | 16.5 mN/m
319.76 K, 8950 kPa | 7.6 mN/m
319.78 K, 7260 kPa | 13.1 mN/m
319.87 K, 10740 kPa | 9.8 mN/m
319.87 K, 12430 kPa | 8.9 mN/m
319.95 K, 14470 kPa | 8.4 mN/m
319.98 K, 17410 kPa | 7.8 mN/m
320.03 K, 20790 kPa | 7.7 mN/m
